Data reported in patent US20260026501A1, “AGROCHEMICAL COMPOSITION OF SDHI FUNGICIDES” (ADAMA MAKHTESHIM LTD., priority 2022, published 2026).

Assay: Concentration of the actives by HPLC after storage (storage stability)
Type: physicochemical
Procedure: The assay of the two Ai's was checked by HPLC Method.
The analytical method included: • 1. Preparation of standard solution. • 2. Sample solution preparation: 200 mg sample was measured in triplicates into 50 ml volumetric flask. • 3. Acetonitrile was added. • 4. Injection of the standard and sample solutions in room temperature.
The concentration was calculated by: […]
The samples were checked for assay after 11 days and 14 days at room temperature and at 54° C. The AI % should not decrease more than 5% after the accelerated stability at 54° C.
The samples were checked for assay after 11 days and 14 days at room temperature and at 54° C.
The AI % should not decrease more than 5% after the accelerated stability at 54° C.

[1] = 11 days after EC preparation (54° C.)
[2] = 11 days after EC preparation (r.t)
[3] = 14 days after EC preparation (54° C.)
[4] = 14 days after EC preparation (r.t)

| SMILES | Concentration of the active in formulation A [1] [g/L] | Concentration of the active in formulation A [2] [g/L] | Concentration of the active in formulation A [3] [g/L] | Concentration of the active in formulation A [4] [g/L] | Concentration of the active in formulation B (after 14 days (54° C.)) [g/L] | Concentration of the active in formulation B (after 14 days (r.t)) [g/L] | Concentration of the active in formulation A (after EC preparation) [g/L] | Concentration of the active in formulation B (after EC preparation) [g/L] |
| --- | --- | --- | --- | --- | --- | --- | --- | --- |
| OC(Cc1ccccc1Cl)(Cn1nc[nH]c1=S)C1(Cl)CC1 (racemic) [Prothioconazole, 2-[(2RS)-2-(1-chlorocyclopropyl)-3-(2-chlorophenyl)-2-hydroxypropyl]-2H-1,2,4-triazole-3(4H)-thione] | 14.9 | 15.1 | 14.7 | 14.8 | 14.7 | 14.5 | 15.2 | 15.3 |
| Cn1cc(C(=O)Nc2ccccc2-c2cc(F)c(F)c(F)c2)c(C(F)F)n1 [Fluxapyroxad, 3-(difluoromethyl)-1-methyl-N-(3′,4′,5′-trifluorobiphenyl-2-yl)pyrazole-4-carboxamide] | 7.5 | 7.5 | 7.5 | 7.4 | 9 | 8.8 | 7.5 | 8.9 |
